Results from patent US8008506B2, “Indazole compounds” (priority 2008, dated 2011).
Read-outs that look alike come from different tables or passages of the source.

Legend:
[1] = system: urinary bladder smooth muscle isolated from common marmoset; assay: Test Example 7: relaxant activity on urinary bladder smooth muscle isolated from common marmoset; conditions: KCl 40 mmol/L contraction, papaverine 10^−4 mol/L relaxation taken as 100%
Protocol: Common marmosets are (CLEA Japan, Inc.) exsanguinated to death, and then are subjected to laparotomy to isolate the urinary bladder therefrom. […] The strips are applied a resting tension of 1 g, and are equilibrated for at least 30 minutes. After the resting tension of the strips have been equilibrated, KCl at a final concentration of 40 mmol/L is repeatedly added to the organ bath, and it is confirmed that contraction due to KCl becomes almost constant. […] When the relaxation response at the maximum concentration of the test compound is completed, papaverine at a final concentration of 10^−4 mol/L is added, and the maximum relaxation response of each strip is determined.

[2] = target: T1, human β3 adrenergic receptor (Homo sapiens, UniProt P13945); assay: Test Example 1-B: human β3 adrenergic receptor agonist activity (cAMP-Screen kit, transfected CHO cells, 96-well); assay type: cell-based; conditions: for Emax: CHO, read-out: β3 receptor I.A.; for EC50: Table 2, Test Example 1-B
T1 construct: the full length human β3 gene is obtained from a human genomic library; expressed in transfected cells; host or cells: CHO (Chinese Hamster Ovary) cells, pcDNA3, geneticin selection
T1 sequence (P13945 whole entry): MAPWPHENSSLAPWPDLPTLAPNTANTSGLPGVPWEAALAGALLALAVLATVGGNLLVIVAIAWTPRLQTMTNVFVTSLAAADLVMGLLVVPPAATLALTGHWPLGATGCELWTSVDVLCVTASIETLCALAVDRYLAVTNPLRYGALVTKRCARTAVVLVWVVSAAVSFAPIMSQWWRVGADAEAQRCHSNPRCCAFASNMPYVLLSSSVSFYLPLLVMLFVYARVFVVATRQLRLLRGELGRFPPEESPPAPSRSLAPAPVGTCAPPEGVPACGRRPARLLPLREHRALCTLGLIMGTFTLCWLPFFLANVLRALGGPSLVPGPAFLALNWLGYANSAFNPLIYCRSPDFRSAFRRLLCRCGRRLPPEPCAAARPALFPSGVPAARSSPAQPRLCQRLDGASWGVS
Protocol: Measurement of Human β3 Adrenergic Receptor Agonist Activity
(§1) The measurement of human β3 adrenergic receptor agonist activity is carried out using CHO (Chinese Hamster Ovary) cells transfected with pcDNA3 (manufactured by Invitrogen, Inc.) to which human β3 gene has been inserted. […] This human β3 cDNA fragment is used as a probe, and the full length human β3 gene is obtained from a human genomic library (manufactured by Clontech Laboratories, Inc.). The above cells are cultured in Ham's F-12 medium containing 10% fetal bovine serum and 400 μg/ml geneticin (manufactured by Invitrogen, Inc.). These cells are seeded on a 96-well plate to a concentration of 2×10^4 cells/well, and after being cultured for about 20 hours, the cells are left to stand in 80 μL of serum-free Ham's F-12 medium for 15 minutes. A test compound is initially dissolved in DMSO, and then is diluted stepwise with Ham's F-12 containing 100 mmol/L HEPES and 1 mmol/L isobutylmethylxanthine. 20 μL of the dilution is added to the cells. After the cells are cultured for 30 minutes, the medium is removed. 0.3. ml of the Assay/lysis Buffer included in cAMP-Screen kit (manufactured by Applied Biosystems, Inc.) is added to the cells, and the cells are incubated at 37° C. for 30 minutes. The resulting cell lysate is subjected to quantification of cAMP with the cAMP-Screen kit.

[3] = target: T2, human α1A adrenergic receptor (Homo sapiens, UniProt P35348); assay: Test Example 4: human α1A adrenergic receptor agonist activity (Ca flux, Fura-2, transfected HEK293 cells); assay type: cell-based; conditions: for Emax: HEK293, read-out: α1A receptor I.A.; for α1A receptor I.A.: maximum response to norepinephrine taken as 100%
T2 construct: expressed in transfected cells; host or cells: HEK293 cells, pcDNA3.1(−), hygromycin B selection
T2 sequence (P35348 1-466): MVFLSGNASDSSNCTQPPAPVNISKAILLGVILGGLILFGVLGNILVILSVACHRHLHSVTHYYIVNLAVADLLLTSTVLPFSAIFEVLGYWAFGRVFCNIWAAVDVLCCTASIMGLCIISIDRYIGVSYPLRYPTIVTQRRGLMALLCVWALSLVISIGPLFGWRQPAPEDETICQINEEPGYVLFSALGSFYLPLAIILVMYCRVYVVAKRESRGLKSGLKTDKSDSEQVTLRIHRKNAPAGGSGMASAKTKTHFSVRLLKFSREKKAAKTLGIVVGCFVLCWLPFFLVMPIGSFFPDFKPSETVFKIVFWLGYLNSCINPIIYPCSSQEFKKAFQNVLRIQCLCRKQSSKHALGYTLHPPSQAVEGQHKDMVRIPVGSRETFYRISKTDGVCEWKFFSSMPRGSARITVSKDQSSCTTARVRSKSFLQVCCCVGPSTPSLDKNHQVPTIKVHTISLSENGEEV
Protocol: Measurement of Human α1A Adrenergic Receptor Agonist Activity
The measurement of human α1A adrenergic receptor agonist activity is carried out using HEK293 cells transfected with pcDNA3.1(−) (manufactured by Invitrogen, Inc.) to which human α1A gene has been inserted. These cells are cultured in DMEM medium containing 10% fetal bovine serum, 400 μg/ml hygromycin B (manufactured by Gibco BRL), 100 U/ml penicillin and 100 μg/ml streptomycin. […] The cells are loaded in a CO2 incubator for 30 minutes, and then are washed twice with the Assay Buffer to remove excess Fura-2AM. The cells are centrifuged, and then are prepared into a solution at 5×10^6 cells/ml with the Assay Buffer. Subsequently, the cells are dispensed on a 96-well plate (manufactured by Corning, Inc.) at a volume of 80 μl/well, and the plate is used as a cell plate. […] Subsequently, measurement of fluorescence intensity (excitation wavelength 340 nm and 380 nm, measurement wavelength 500 nm) is initiated at an interval of 2 seconds. After making measurements for about 30 seconds, 20 μl of the test sample from the sample plate is added to the cell plate, and measurements are further continued for 270 seconds. The Ca flux resulting from the test compound is calculated utilizing the difference between the maximum value of fluorescence intensity ratio at the wavelengths 340 nm and 380 nm after the addition of the test compound, and the fluorescence intensity ratio before the addition of the test compound, as the peak height.

[4] = target: T3, human β1 adrenergic receptor (Homo sapiens, UniProt P08588); assay: Test Example 2-B: human β1 adrenergic receptor agonist activity (method of Test Example 1-B); assay type: cell-based; conditions: for β1 receptor EC50: Table 2, Test Example 2-B; for Emax: read-out: β1 receptor I.A.
T3 construct: expressed in transfected cells; host or cells: CHO (Chinese Hamster Ovary) cells, pcDNA3
T3 sequence (P08588 whole entry): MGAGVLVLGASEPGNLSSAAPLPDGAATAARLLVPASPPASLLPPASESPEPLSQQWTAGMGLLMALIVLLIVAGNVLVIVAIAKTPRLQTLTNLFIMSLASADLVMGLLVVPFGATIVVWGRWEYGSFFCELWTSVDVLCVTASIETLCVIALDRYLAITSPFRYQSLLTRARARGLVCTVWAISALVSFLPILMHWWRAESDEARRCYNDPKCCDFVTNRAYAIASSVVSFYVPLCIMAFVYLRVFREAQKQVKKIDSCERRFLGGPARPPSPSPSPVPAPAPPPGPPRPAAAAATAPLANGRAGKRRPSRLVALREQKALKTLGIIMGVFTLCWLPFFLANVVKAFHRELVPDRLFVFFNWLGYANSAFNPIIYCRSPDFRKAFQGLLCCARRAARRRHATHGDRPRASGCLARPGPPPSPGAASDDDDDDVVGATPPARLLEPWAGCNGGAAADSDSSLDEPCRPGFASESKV
Protocol: as §1, with “kit. […] Measurement of Human β1 Adrenergic Receptor Agonist Activity” for “kit.”

[5] = Table 1, Test Example 4, read-out: α1A receptor EC50
[6] = Table 2, Test Example 4, read-out: α1A receptor EC50

SMILES	relaxant activity (%) 10^−4 M [1] [%]	relaxant activity (%) 10^−5 M [1] [%]	Emax [2] [%]	EC50 [2] [nM]	EC50 [3] [nM]	Emax [3] [%]	β1 receptor EC50 [4]	Emax [4] [%]	α1A receptor I.A. ([3]; Table 2) [%]	EC50 ([3]; read-out: α1A receptor EC50, Table 2, Test Example 4) [nM]	EC50 [3, 5] [nM]	EC50 [3, 6] [nM]
CC(C)c1n[nH]c2cc(OCCNC[C@H](O)c3cccc(NS(C)(=O)=O)c3)ccc12 [Example 1, (R)-N-(3-(1-hydroxy-2-(2-(3-isopropylindazol-6-yloxy)ethylamino)ethyl)phenyl)methanesulfonamide]	68.6	49.9	74	17	> 2000	8	a)	12				
CCc1n[nH]c2cc(OCCNC[C@H](O)c3cccc(NS(C)(=O)=O)c3)ccc12 [Example 2, (R)-N-(3-(1-hydroxy-2-(2-(3-ethylindazol-6-yloxy)ethylamino)ethyl)phenyl)methanesulfonamide]	57.8	43.4	76	17	855	24	a)	5.8	24	855		
CCCc1n[nH]c2cc(OCCNC[C@H](O)c3cccc(NS(C)(=O)=O)c3)ccc12 [Example 3, (R)-N-(3-(1-hydroxy-2-(2-(3-propylindazol-6-yloxy)ethylamino)ethyl)phenyl)methanesulfonamide]						0	a)	1	0		> 2000	> 2000
CS(=O)(=O)Nc1cccc([C@@H](O)CNCCOc2ccc3c(C(F)(F)F)n[nH]c3c2)c1 [Example 4, (R)-N-(3-(1-hydroxy-2-(2-(3-trifluoromethylindazol-6-yloxy)ethylamino)ethyl)phenyl)methanesulfonamide]	73.5	40.8	78	49	892	40	a)	6.3				
CN(C)C(=O)CCc1n[nH]c2cc(OCCNC[C@H](O)c3cccc(NS(C)(=O)=O)c3)ccc12 [Example 5, (R)-3-(6-(2-(2-hydroxy-2-(3-(methylsulfonamido)phenyl)ethylamino)ethoxy)-indazol-3-yl)-N,N-dimethylpropanamide]	56.3	50.9				47			47		836	
COCc1n[nH]c2cc(OCCNC[C@H](O)c3cccc(NS(C)(=O)=O)c3)ccc12 [Example 6, (R)-N-(3-(1-hydroxy-2-(2-(3-methoxymethylindazol-6-yloxy)ethylamino)ethyl)phenyl)methanesulfonamide]	42.6	35.3				20					> 2000	
CCc1n[nH]c2cc(OCCNC[C@H](O)c3ccc(F)c(NS(C)(=O)=O)c3)ccc12 [Example 8, (R)-N-(5-(2-(2-(3-ethylindazol-6-yloxy)ethylamino)-1-hydroxyethyl)-2-fluorophenyl)methanesulfonamide]			61	17		5	a)	15				> 2000
CCc1n[nH]c2cc(OCCNC[C@H](O)c3ccc(Cl)c(NS(C)(=O)=O)c3)ccc12 [Example 9, (R)-N-(2-chloro-5-(2-(2-(3-ethylindazol-6-yloxy)ethylamino)-1-hydroxyethyl)phenyl)methanesulfonamide]			58	29		11	a)	18				> 2000
CS(=O)(=O)Nc1cc([C@@H](O)CNCCOc2ccc3c(C(F)(F)F)n[nH]c3c2)ccc1Cl [Example 11, (R)-N-(2-chloro-5-(1-hydroxy-2-(2-(3-(trifluoromethyl)indazol-6-yloxy)ethylamino)ethyl)phenyl)methanesulfonamide]	39.2	20.1	65	15		0	a)	22				> 2000
COc1n[nH]c2cc(OCCNC[C@H](O)c3cccc(NS(=O)(=O)c4ccccc4)c3)ccc12 [Example 16, (R)-N-(3-(1-hydroxy-2-(2-(3-methoxyindazol-6-yloxy)ethylamino)ethyl)phenyl)benzenesulfonamide]			75	17		0	a)	7				> 2000
